Data set [1] is described as follows: in vitro. Type of data set: in vitro ADME. As to conditions: 1 μM compound, 0.5 mg/mL protein; for half-life at 1 μM: microsomes, pH 7.4, read-out: Liver Microsomal Stability t1/2. The gist of the method: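 Pooled liver microsomes (0.5 mg/mL protein) in 0.1 M phosphate pH 7.4 with 1 μM compound and 1 mM NADPH at 37° C., sampled at 0–45 min; minus-NADPH control at 45 min. Acetonitrile quench, LC-MS/MS; t1/2 and CLint from ln peak-area ratio vs time slope.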
On the technique in general: Liver microsomes are a subcellular fraction often used to study metabolism.

The subject of another data set is Hep-G2 cells. In words: Cell cytotoxicity (CC50). In kind it is cell-based. Particulars: mean of at least two experiments. A digest of the protocol:
(§1)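 Values are means of ≥2 independent runs, rounded to whole units, from 4-parameter variable-slope curve fits. Toxicity measured in Hep-G2 cells run alongside RSV plaque-reduction assays.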

Another data set deals with RSV A2. The experiment in a line: RSV plaque reduction assay. Type of data set: cell-based, respiratory syncytial virus (RSV). As to conditions: mean of at least two experiments. A digest of the protocol: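 RSV A2 at 100 PFU/well was premixed with eight compound dilutions and added to confluent Hep-G2 monolayers for 2 h at 37 °C. Cells were then kept 2 days under a DMEM/2% FBS/0.8% CMC overlay containing compound. Immunostained plaques were counted relative to virus controls, and EC50 came from 4-parameter fits, averaged over at least two experiments.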

Data set [2] is described as follows: in vitro. In kind it is in vitro ADME. Particulars: hepatocytes, 3 μM compound, read-out: Liver Hepatocyte Stability t1/2. How it is done: Compounds were subjected to the following assays to investigate liver microsomal stability and hepatocyte stability.
Hepatocyte Incubation: Experimental Procedure
Cryopreserved pooled hepatocytes were purchased from a reputable commercial supplier and stored in liquid nitrogen prior to use. Williams E media supplemented with 2 mM L-glutamine and 25 mM HEPES and test compound (final substrate concentration 3 μM; final DMSO concentration 0.25%) are pre-incubated at 37° C. prior to the addition of a suspension of cryopreserved hepatocytes (final cell density 0.5×10^6 viable cells/mL in Williams E media supplemented with 2 mM L-glutamine and 25 mM HEPES) to initiate the reaction. The final incubation volume is 500 μL. Two control compounds were included with each species, alongside appropriate vehicle control. The reactions are stopped by transferring 50 μL of incubate to 100 μL acetonitrile containing internal standard at the appropriate time points. Samples were removed at 6 time points (0, 5, 15, 30, 45 and 60 min) over the course of a 60 min experiment. The termination plates are centrifuged at 2500 rpm at 4° C. for 30 min to precipitate the protein. Following protein precipitation, the sample supernatants were combined in cassettes of up to 4 compounds and analysed using generic LC-MS/MS conditions. From a plot of ln peak area ratio (compound peak area/internal standard peak area) against time, the gradient of the line is determined. Subsequently, half-life (t1/2) and intrinsic clearance (CLint) were calculated.

The next data set can be described thus: Cell cytotoxicity (CC50). As to conditions: human; mean of at least two experiments. In kind it is cell-based. A digest of the protocol: as §1
Another data set in a line: Thermodynamic solubility. Particulars: aqueous buffer, thermodynamic from solid; typically phosphate buffered saline pH 7.4, ambient temperature overnight. Type of data set: physicochemical. How it is done:
Test compound (2.5 mg of solid; n=1) was weighed in an amber glass vial and buffer (0.5 mL) was added (typically phosphate buffered saline pH 7.4). The solution was agitated at ambient temperature overnight using a vial roller system. The solution was then filtered (0.45 μm pore size; without pre-saturation). Duplicate aliquots (50 μL) are sampled from the filtrate and diluted with one volume of Milli-Q water and methanol (1:1 v/v) before analysis by HPLC-UV. A standard was prepared in DMSO at 10 mg/mL (n=1) which was then diluted 10-fold in Milli-Q water and methanol (1:1 v/v) to give a 1 mg/mL solution. The concentration of test compound in the filtrate was quantified relative to the concentration standard. Analysis was performed using a gradient HPLC-MS system.

The next data set can be described thus: in vivo. Type of data set: in vivo, rat (Sprague Dawley). Particulars: male SD rat; for Vd / clearance / Cmax / half-life / AUC(0-t): Sprague Dawley, in vivo; for Cmax / C 8 h: IV 1 mg/kg / PO 10 mg/kg study; for AUC(0-t): read-out: PO AUClast. How it is done:
The pharmacokinetics of compounds were studied in vivo in rats at doses of 1 mg/kg (IV) and 10 mg/kg (PO).
Male rats [Sprague Dawley (SD)] surgically prepared with a jugular vein cannula were treated with experimental compounds via intravenous administration (IV; n=3; 1 mg/kg) or oral administration (PO; n=3; 10 mg/kg). Compounds were formulated as a solution in 40:60 dimethylacetamide:saline (IV administration) and a solution of 10% DMSO, 20% cremaphor in water (70%) (PO administration). […] Serial blood samples were collected via the cannula at 0.02, 0.08, 0.25, 0.5, 1, 2, 4, 6, 8 and 24 h post IV dosing of compound, and at 0.08, 0.25, 0.5, 1, 2, 4, 6, 8 and 24 h post oral dosing of compound, and plasma was prepared by centrifugation and stored immediately at −80° C. Samples were subsequently thawed, prepared for analysis by protein precipitation with acetonitrile, and analysed by tandem LCMS using electrospray ionisation using a matrix-matched calibration curve. PK parameters were calculated from the resulting data.

Setting [3] is: human respiratory syncytial virus, HepG2, Hep-G2 cells.
The mark [4] stands for this setting: IV 1 mg/kg, read-out: IV t1/2 (converted).
The mark [5] stands for this setting: PO 10 mg/kg, read-out: PO t1/2 (converted).

Experimental findings from patent publication US11634425B2, “Pharmaceutical compounds” (priority 2019, dated 2023) are described below.

Values after ≈ are worked out from the molar mass of the structure shown. Read-outs that look alike come from different tables or passages of the source.

As for “N-[(3S)-9-Fluoro-2-oxo-5-phenyl-1,3-dihydro-1,4-benzodiazepin-3-yl]-2-(2-fluorophenyl)-7-methylpyrazolo[1,5-a]pyrimidine-3-carboxamide [Example 38]”, the “Liver Microsomal Stability t1/2” value in “in vitro [1]” (dog) is 2.75 h; in “in vitro [1]” (human), > 2.33 h; in the data set “in vitro [1]” (rat), 1.98 h. The CC50 in the data set with Hep-G2 cells was > 25000 nM. In addition, the EC50 in the data set on RSV A2 (Hep-G2 cells) was found to be 27 nM.
Regarding `Cc1nc2ccc(Cl)nn2c1C(=O)N[C@H]1N=C(c2ccccc2)c2ccccc2NC1=O` [Example 21, 6-Chloro-2-methyl-N-[(3S)-2-oxo-5-phenyl-1,3-dihydro-1,4-benzodiazepin-3-yl]imidazo[1,2-b]pyridazine-3-carboxamide], the half-life at 3 μM was found to be 2.55 h in “in vitro [2]” (dog), 2.52 h in the data set “in vitro [2]” (human) and 1.5 h in the data set “in vitro [2]” (rat). The half-life at 1 μM turned out to be 2.95 h in “in vitro [1]” (dog), 2.15 h in “in vitro [1]” (human) and 1.04 h in “in vitro [1]” (rat). In addition, the CC50 in “Cell cytotoxicity (CC50)” is > 25000 nM. For the same compound, the EC50 with RSV A2 (setting [3]) worked out at 147 nM. Also, in “Thermodynamic solubility”, the thermodynamic solubility came out at 4.64 µM (≈ 2.06 µg/mL).
On to `O=C(N[C@H]1N=C(c2ccccc2)c2cccc(F)c2NC1=O)c1c(-c2cncc(Cl)c2)nn2cccnc12` [Example 28, 2-(5-Chloropyridin-3-yl)-N-[(3S)-9-fluoro-2-oxo-5-phenyl-1,3-dihydro-1,4-benzodiazepin-3-yl]pyrazolo[1,5-a]pyrimidine-3-carboxamide], for which the values for the half-life at 3 μM in “in vitro [2]” (dog), in the data set “in vitro [2]” (human) and in “in vitro [2]” (rat) were 4 h, 3.23 h and > 3.1 h, respectively. The same compound had a Vd in “in vivo” (IV 1 mg/kg) of 1.8 L/kg. Moreover, the clearance in “in vivo” (IV 1 mg/kg) was found to be 7.8 mL/min/kg. In the data set “in vivo”, this compound came in with a Cmax of 785 ng/mL. For the same compound, the half-life in “in vivo” (setting [4]) is 3.1 h; in the data set “in vivo” (setting [5]) it was 5.4 h. Also, in the data set “in vivo” (PO 10 mg/kg), the AUC(0-t) was found to be 11100 ng·h/mL. Besides, the “C 8 h” value in the data set “in vivo” was determined as 629 ng/mL. The same compound had a F in the data set “in vivo” (IV 1 mg/kg, PO 10 mg/kg) of 54%. The half-life at 1 μM amounted to 4.28 h in “in vitro [1]” (dog), 14.2 h in “in vitro [1]” (human) and 44.7 h in the data set “in vitro [1]” (rat). For the same compound, the CC50 in the data set “Cell cytotoxicity (CC50)” was > 25000 nM. The compound also gave an EC50 in the data set with RSV A2 (setting [3]) of 41 nM.
Consider `O=C(N[C@H]1N=C(c2ccccc2)c2cccc(F)c2NC1=O)c1c(-c2ccc3[nH]ncc3c2)nc2cccnn12` [Example 126, N-[(3S)-9-fluoro-2-oxo-5-phenyl-1,3-dihydro-1,4-benzodiazepin-3-yl]-2-(1H-indazol-5-yl)imidazo[1,2-b]pyridazine-3-carboxamide], for which the “Liver Microsomal Stability t1/2” value in the data set “in vitro [1]” (dog) was 0.563 h; in “in vitro [1]” (human), 5.2 h; in the data set “in vitro [1]” (rat), 6.88 h. Further, the CC50 with Hep-G2 cells is > 25000 nM. The EC50 in the data set on RSV A2 (Hep-G2 cells) amounted to 56 nM.
For the compound “2-[2-Methyl-6-(propan-2-ylamino)pyridin-3-yl]-N-[(3S)-2-oxo-5-phenyl-1,3-dihydro-1,4-benzodiazepin-3-yl]pyrazolo[1,5-a]pyrimidine-3-carboxamide [Example 60]”, in the data set on Hep-G2 cells, the CC50 was > 25000 nM. The compound further returned an EC50 with RSV A2 (Hep-G2 cells) of 41 nM.
For the compound `Cc1ccc2nc(-c3ccc(N4CCOCC4)nc3)c(C(=O)N[C@H]3N=C(c4ccccc4)c4cccc(F)c4NC3=O)n2n1` [Example 105, N-[(3S)-9-fluoro-2-oxo-5-phenyl-1,3-dihydro-1,4-benzodiazepin-3-yl]-6-methyl-2-(6-morpholin-4-ylpyridin-3-yl)imidazo[1,2-b]pyridazine-3-carboxamide], the CC50 in the data set with Hep-G2 cells was > 25000 nM. The midpoint of the response in the data set on RSV A2 (Hep-G2 cells), the EC50, lay at 38 nM.
In the same order, the values of “N-[(3S)-9-Fluoro-2-oxo-5-phenyl-l,3-dihydro-1,4-benzodiazepin-3-yl]-2-phenylpyrazolo[1,5-a]pyrimidine-3-carboxamide [Example 17]” are > 25000 nM and 90 nM.
In the same order, the values of `CN1CCc2ccc(-c3nn4cccnc4c3C(=O)N[C@H]3N=C(c4ccccc4)c4ccccc4NC3=O)cc21` [Example 11, 2-(1-Methyl-2,3-dihydroindol-6-yl)-N-[(3S)-2-oxo-5-phenyl-1,3-dihydro-1,4-benzodiazepin-3-yl]pyrazolo[1,5-a]pyrimidine-3-carboxamide] are > 25000 nM and 89 nM.
As for `CCc1ccc(-c2nn3cccnc3c2C(=O)N[C@H]2N=C(c3ccccc3)c3cccc(F)c3NC2=O)c(C)n1` [Example 57, 2-(6-Ethyl-2-methylpyridin-3-yl)-N-[(3S)-9-fluoro-2-oxo-5-phenyl-2,3-dihydro-1H-1,4-benzodiazepin-3-yl]pyrazolo[1,5-a]pyrimidine-3-carboxamide], the half-life at 3 μM in the data set “in vitro [2]” (dog) was 43.3 h; in “in vitro [2]” (human), > 3.1 h; in “in vitro [2]” (rat) it was 0.785 h. The compound further had a Vd in “in vivo” (IV 1 mg/kg) of 0.6 L/kg. In “in vivo” (IV 1 mg/kg), this compound had a clearance of 19.2 mL/min/kg. The compound further displayed a Cmax in the data set “in vivo” of 912 ng/mL. In addition, the results for the half-life in the data set “in vivo” (setting [4]) and in “in vivo” (setting [5]) were 1.4 h and 2.6 h, respectively. For the same compound, the AUC(0-t) in the data set “in vivo” (PO 10 mg/kg) is 3660 ng·h/mL. For the same compound, the “C 8 h” value in “in vivo” was found to be 142 ng/mL. In addition, in “in vivo” (IV 1 mg/kg, PO 10 mg/kg), the F worked out at 48%. Moreover, the figures for the half-life at 1 μM in the data set “in vitro [1]” (dog), in “in vitro [1]” (human) and in “in vitro [1]” (rat) were 1.38 h, 1.68 h and 0.715 h, respectively. Further, the CC50 in “Cell cytotoxicity (CC50)” was > 25000 nM. This compound came in with an EC50 with RSV A2 (setting [3]) of 56 nM.
For “2-[4-Methyl-6-(propan-2-ylamino)pyridin-3-yl]-N-[(3S)-9-fluoro-2-oxo-5-phenyl-1,3-dihydro-1,4-benzodiazepin-3-yl]pyrazolo[1,5-a]pyrimidine-3-carboxamide [Example 62]”, the “Liver Microsomal Stability t1/2” value in the data set “in vitro [1]” (dog) is 0.828 h; in the data set “in vitro [1]” (human), > 2.33 h; in the data set “in vitro [1]” (rat), 1.19 h. In addition, the half-maximal cytotoxic concentration (CC50) in the data set on Hep-G2 cells was > 25000 nM. In the data set on RSV A2 (Hep-G2 cells), this compound returned an EC50 of 74 nM.
In the same order, the values of “2-[2-Methyl-6-(propan-2-ylamino)pyridin-3-yl]-N-[(3S)-9-fluoro-2-oxo-5-phenyl-1,3-dihydro-1,4-benzodiazepin-3-yl]pyrazolo[1,5-a]pyrimidine-3-carboxamide [Example 61]” are 0.392 h, 2.2 h, 1.07 h, > 25000 nM and 25 nM.

Broadly, the CC50 is the concentration that lowers cell viability or growth by half. Low values mean greater toxicity to the cells, high ones lower toxicity to the cells. As a reminder, the EC50 is the concentration that produces a half-maximal response. A higher EC50 goes with lower potency in that assay. One may read the thermodynamic solubility as the concentration in solution at equilibrium with solid. A word on the Vd: it is a proportionality between amount in the body and measured concentration, not a real space. A higher Vd goes with extensive tissue distribution. Usually clearance stands for the volume of plasma or blood freed of the substance per unit of time. A low value points to a low capacity for elimination. As usually defined, the Cmax is the maximum level reached in the sampled fluid or tissue.
